Tests used:
Experiment in all cases: SelectScreen ZLYTE
Type in all cases: biochemical
Details in all cases: INX-0315 at 100nM
[1] = target: T1, EPHA5 (Homo sapiens, UniProt P54756)
T1 construct: purchased Thermo Fisher Scientific SelectScreen (plus Nanosyn / Reaction Biology for CDK/cyclin lines)
Method in brief: (§1)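 INX-315, single point 100 nmol/L, 1% DMSO; then 10-pt titration 1 µmol/L → 0.0495 nmol/L. Standard vendor conditions.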

[2] = target: T2, LYN A (Homo sapiens, UniProt P07948)
T2 construct: purchased Thermo Fisher Scientific SelectScreen (plus Nanosyn / Reaction Biology for CDK/cyclin lines)
Method in brief: as §1

[3] = target: T3, NTRK3 (TRKC) (Homo sapiens, UniProt Q16288)
T3 construct: purchased Thermo Fisher Scientific SelectScreen (plus Nanosyn / Reaction Biology for CDK/cyclin lines)
Method in brief: as §1

[4] = target: T4, RPS6KA2 (RSK3) (Homo sapiens, UniProt Q15349)
T4 construct: purchased Thermo Fisher Scientific SelectScreen (plus Nanosyn / Reaction Biology for CDK/cyclin lines)
Method in brief: as §1

[5] = target: T5, PRKCA (PKC alpha) (Homo sapiens, UniProt P17252)
T5 construct: purchased Thermo Fisher Scientific SelectScreen (plus Nanosyn / Reaction Biology for CDK/cyclin lines)
Method in brief: as §1

[6] = target: T6, PEAK1 (Homo sapiens, UniProt Q9H792)
T6 construct: purchased Thermo Fisher Scientific SelectScreen (plus Nanosyn / Reaction Biology for CDK/cyclin lines)
Method in brief: as §1

[7] = target: T7, RET Y791F (Homo sapiens, UniProt P07949, Y791F)
T7 construct: purchased Thermo Fisher Scientific SelectScreen (plus Nanosyn / Reaction Biology for CDK/cyclin lines)
Method in brief: as §1

[8] = target: T8, MKNK1 (MNK1) (Homo sapiens, UniProt Q9BUB5)
T8 construct: purchased Thermo Fisher Scientific SelectScreen (plus Nanosyn / Reaction Biology for CDK/cyclin lines)
Method in brief: as §1

[9] = target: T9, GSK3B (GSK3 beta) (Homo sapiens, UniProt P49841)
T9 construct: purchased Thermo Fisher Scientific SelectScreen (plus Nanosyn / Reaction Biology for CDK/cyclin lines)
Method in brief: as §1

[10] = target: T10, MAP3K8 (COT) (Homo sapiens, UniProt P41279)
T10 construct: purchased Thermo Fisher Scientific SelectScreen (plus Nanosyn / Reaction Biology for CDK/cyclin lines)
Method in brief: as §1

[11] = target: T11, ROCK1 (Homo sapiens, UniProt Q13464)
T11 construct: purchased Thermo Fisher Scientific SelectScreen (plus Nanosyn / Reaction Biology for CDK/cyclin lines)
Method in brief: as §1

[12] = target: T12, AMPK (A1/B2/G2) (Homo sapiens, UniProt Q13131)
T12 construct: purchased Thermo Fisher Scientific SelectScreen (plus Nanosyn / Reaction Biology for CDK/cyclin lines)
Method in brief: as §1

[13] = target: T13, RET A883F (Homo sapiens, UniProt P07949, A883F)
T13 construct: purchased Thermo Fisher Scientific SelectScreen (plus Nanosyn / Reaction Biology for CDK/cyclin lines)
Method in brief: as §1

[14] = target: T14, DAPK3 (ZIPK) (Homo sapiens, UniProt O43293)
T14 construct: purchased Thermo Fisher Scientific SelectScreen (plus Nanosyn / Reaction Biology for CDK/cyclin lines)
Method in brief: as §1

[15] = target: T15, EPHA1 (Homo sapiens, UniProt P21709)
T15 construct: purchased Thermo Fisher Scientific SelectScreen (plus Nanosyn / Reaction Biology for CDK/cyclin lines)
Method in brief: as §1

[16] = target: T16, FGFR2 N549H (Homo sapiens, UniProt P21802, N549H)
T16 construct: purchased Thermo Fisher Scientific SelectScreen (plus Nanosyn / Reaction Biology for CDK/cyclin lines)
Method in brief: as §1

[17] = target: T17, SGKL (SGK3) (Homo sapiens, UniProt Q96BR1)
T17 construct: purchased Thermo Fisher Scientific SelectScreen (plus Nanosyn / Reaction Biology for CDK/cyclin lines)
Method in brief: as §1

[18] = target: T18, AKT1 (PKB alpha) (Homo sapiens, UniProt P31749)
T18 construct: purchased Thermo Fisher Scientific SelectScreen (plus Nanosyn / Reaction Biology for CDK/cyclin lines)
Method in brief: as §1

[19] = target: T19, EGFR (ErbB1) L858R (Homo sapiens, UniProt P00533, L858R)
T19 construct: purchased Thermo Fisher Scientific SelectScreen (plus Nanosyn / Reaction Biology for CDK/cyclin lines)
Method in brief: as §1

[20] = target: T20, PRKD1 (PKC mu) (Homo sapiens, UniProt Q15139)
T20 construct: purchased Thermo Fisher Scientific SelectScreen (plus Nanosyn / Reaction Biology for CDK/cyclin lines)
Method in brief: as §1

[21] = target: T21, GRK6 (Homo sapiens, UniProt P43250)
T21 construct: purchased Thermo Fisher Scientific SelectScreen (plus Nanosyn / Reaction Biology for CDK/cyclin lines)
Method in brief: as §1

[22] = target: T22, RPS6KA1 (RSK1) (Homo sapiens, UniProt Q15418)
T22 construct: purchased Thermo Fisher Scientific SelectScreen (plus Nanosyn / Reaction Biology for CDK/cyclin lines)
Method in brief: as §1

[23] = target: T23, MERTK (cMER) (Homo sapiens, UniProt Q12866)
T23 construct: purchased Thermo Fisher Scientific SelectScreen (plus Nanosyn / Reaction Biology for CDK/cyclin lines)
Method in brief: as §1

[24] = target: T24, CSNK1D (CK1 delta) (Homo sapiens, UniProt P48730)
T24 construct: purchased Thermo Fisher Scientific SelectScreen (plus Nanosyn / Reaction Biology for CDK/cyclin lines)
Method in brief: as §1

[25] = target: T25, ACVR1B (ALK4) (Homo sapiens, UniProt P36896)
T25 construct: purchased Thermo Fisher Scientific SelectScreen (plus Nanosyn / Reaction Biology for CDK/cyclin lines)
Method in brief: as §1

[26] = target: T26, MAPK10 (JNK3) (Homo sapiens, UniProt P53779)
T26 construct: purchased Thermo Fisher Scientific SelectScreen (plus Nanosyn / Reaction Biology for CDK/cyclin lines)
Method in brief: as §1

[27] = target: T27, EGFR (ErbB1) G719C (Homo sapiens, UniProt P00533, G719C)
T27 construct: purchased Thermo Fisher Scientific SelectScreen (plus Nanosyn / Reaction Biology for CDK/cyclin lines)
Method in brief: as §1

[28] = target: T28, IKBKB (IKK beta) (Homo sapiens, UniProt O14920)
T28 construct: purchased Thermo Fisher Scientific SelectScreen (plus Nanosyn / Reaction Biology for CDK/cyclin lines)
Method in brief: as §1

[29] = target: T29, HCK (Homo sapiens, UniProt P08631)
T29 construct: purchased Thermo Fisher Scientific SelectScreen (plus Nanosyn / Reaction Biology for CDK/cyclin lines)
Method in brief: as §1

[30] = target: T30, MET (cMet) Y1235D (Homo sapiens, UniProt P08581, Y1235D)
T30 construct: purchased Thermo Fisher Scientific SelectScreen (plus Nanosyn / Reaction Biology for CDK/cyclin lines)
Method in brief: as §1

[31] = target: T31, STK25 (YSK1) (Homo sapiens, UniProt O00506)
T31 construct: purchased Thermo Fisher Scientific SelectScreen (plus Nanosyn / Reaction Biology for CDK/cyclin lines)
Method in brief: as §1

[32] = target: T32, PDK1 Direct (Homo sapiens, UniProt O15530)
T32 construct: purchased Thermo Fisher Scientific SelectScreen (plus Nanosyn / Reaction Biology for CDK/cyclin lines)
Method in brief: as §1

[33] = target: T33, RET (Homo sapiens, UniProt P07949)
T33 construct: purchased Thermo Fisher Scientific SelectScreen (plus Nanosyn / Reaction Biology for CDK/cyclin lines)
Method in brief: as §1

[34] = target: T34, EGFR (ErbB1) G719S (Homo sapiens, UniProt P00533, G719S)
T34 construct: purchased Thermo Fisher Scientific SelectScreen (plus Nanosyn / Reaction Biology for CDK/cyclin lines)
Method in brief: as §1

[35] = target: T35, MYLK2 (skMLCK) (Homo sapiens, UniProt Q9H1R3)
T35 construct: purchased Thermo Fisher Scientific SelectScreen (plus Nanosyn / Reaction Biology for CDK/cyclin lines)
Method in brief: as §1

[36] = target: T36, PRKCB2 (PKC beta II) (Homo sapiens, UniProt P05771)
T36 construct: purchased Thermo Fisher Scientific SelectScreen (plus Nanosyn / Reaction Biology for CDK/cyclin lines)
Method in brief: as §1

T7 sequence (P07949 29-1114 Y791F): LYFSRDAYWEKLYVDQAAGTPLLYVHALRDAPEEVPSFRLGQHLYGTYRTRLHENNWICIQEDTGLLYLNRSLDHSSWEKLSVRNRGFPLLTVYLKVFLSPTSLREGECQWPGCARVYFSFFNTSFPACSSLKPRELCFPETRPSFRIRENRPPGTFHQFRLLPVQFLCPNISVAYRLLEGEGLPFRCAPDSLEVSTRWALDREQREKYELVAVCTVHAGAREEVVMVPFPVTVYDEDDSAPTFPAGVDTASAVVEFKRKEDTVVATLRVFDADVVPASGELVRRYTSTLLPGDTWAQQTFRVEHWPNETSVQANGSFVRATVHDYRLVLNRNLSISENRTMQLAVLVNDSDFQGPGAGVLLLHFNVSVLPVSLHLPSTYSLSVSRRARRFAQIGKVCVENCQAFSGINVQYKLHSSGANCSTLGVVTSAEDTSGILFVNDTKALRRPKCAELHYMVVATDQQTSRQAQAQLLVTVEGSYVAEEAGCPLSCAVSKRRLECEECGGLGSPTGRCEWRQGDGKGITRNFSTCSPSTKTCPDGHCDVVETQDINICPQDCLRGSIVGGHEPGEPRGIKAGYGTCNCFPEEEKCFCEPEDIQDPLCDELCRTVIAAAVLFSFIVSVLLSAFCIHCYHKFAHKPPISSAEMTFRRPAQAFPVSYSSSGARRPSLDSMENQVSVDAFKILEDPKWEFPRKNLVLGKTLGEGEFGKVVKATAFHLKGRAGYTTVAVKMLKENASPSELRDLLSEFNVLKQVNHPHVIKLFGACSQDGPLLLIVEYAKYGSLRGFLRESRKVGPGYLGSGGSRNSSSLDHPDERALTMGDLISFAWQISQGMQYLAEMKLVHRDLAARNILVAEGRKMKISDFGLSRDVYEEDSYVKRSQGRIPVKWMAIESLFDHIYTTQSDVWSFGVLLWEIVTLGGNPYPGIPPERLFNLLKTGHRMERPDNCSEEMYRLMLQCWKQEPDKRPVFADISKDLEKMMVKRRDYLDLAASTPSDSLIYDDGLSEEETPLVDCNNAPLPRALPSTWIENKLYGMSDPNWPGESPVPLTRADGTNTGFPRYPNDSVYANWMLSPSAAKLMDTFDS
T32 sequence (O15530 whole entry): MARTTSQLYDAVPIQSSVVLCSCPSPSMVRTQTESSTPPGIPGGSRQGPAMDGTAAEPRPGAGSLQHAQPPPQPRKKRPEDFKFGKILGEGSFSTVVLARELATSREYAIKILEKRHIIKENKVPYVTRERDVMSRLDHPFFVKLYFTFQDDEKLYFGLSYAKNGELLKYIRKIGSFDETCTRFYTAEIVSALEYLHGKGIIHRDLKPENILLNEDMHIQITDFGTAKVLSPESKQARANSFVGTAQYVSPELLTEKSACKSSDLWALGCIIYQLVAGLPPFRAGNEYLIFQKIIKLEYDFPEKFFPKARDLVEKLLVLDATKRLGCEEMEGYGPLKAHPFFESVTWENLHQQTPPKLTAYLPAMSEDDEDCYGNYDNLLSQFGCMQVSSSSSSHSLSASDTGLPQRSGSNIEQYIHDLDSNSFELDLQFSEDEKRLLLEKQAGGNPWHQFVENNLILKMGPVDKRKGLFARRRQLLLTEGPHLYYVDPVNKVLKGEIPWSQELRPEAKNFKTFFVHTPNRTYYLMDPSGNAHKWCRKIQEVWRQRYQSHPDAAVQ
T15 sequence (P21709 26-976): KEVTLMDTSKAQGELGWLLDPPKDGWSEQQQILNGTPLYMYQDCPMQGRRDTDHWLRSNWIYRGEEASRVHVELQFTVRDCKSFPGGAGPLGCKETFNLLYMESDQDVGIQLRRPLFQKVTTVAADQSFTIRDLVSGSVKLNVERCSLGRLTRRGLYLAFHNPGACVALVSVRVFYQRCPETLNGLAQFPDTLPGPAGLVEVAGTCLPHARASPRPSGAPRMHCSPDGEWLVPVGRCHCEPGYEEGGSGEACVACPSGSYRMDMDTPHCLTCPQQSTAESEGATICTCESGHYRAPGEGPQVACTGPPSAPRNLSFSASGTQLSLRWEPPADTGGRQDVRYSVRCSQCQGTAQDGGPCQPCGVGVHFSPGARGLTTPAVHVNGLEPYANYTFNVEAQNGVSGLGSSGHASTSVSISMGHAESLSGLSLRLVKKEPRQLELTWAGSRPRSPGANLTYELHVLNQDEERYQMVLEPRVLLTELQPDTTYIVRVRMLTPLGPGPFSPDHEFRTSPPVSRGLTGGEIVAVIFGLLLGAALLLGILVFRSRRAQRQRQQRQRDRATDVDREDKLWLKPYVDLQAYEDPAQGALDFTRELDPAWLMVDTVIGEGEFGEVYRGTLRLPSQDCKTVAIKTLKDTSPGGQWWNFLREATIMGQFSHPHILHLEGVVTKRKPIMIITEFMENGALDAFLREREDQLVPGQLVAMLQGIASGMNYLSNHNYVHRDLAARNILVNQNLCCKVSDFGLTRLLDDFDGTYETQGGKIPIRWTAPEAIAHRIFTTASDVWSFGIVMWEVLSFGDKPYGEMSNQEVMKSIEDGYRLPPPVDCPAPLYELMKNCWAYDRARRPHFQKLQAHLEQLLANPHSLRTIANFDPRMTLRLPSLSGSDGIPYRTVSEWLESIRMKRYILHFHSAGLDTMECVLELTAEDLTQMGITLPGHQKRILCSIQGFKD
T2 sequence (P07948 whole entry): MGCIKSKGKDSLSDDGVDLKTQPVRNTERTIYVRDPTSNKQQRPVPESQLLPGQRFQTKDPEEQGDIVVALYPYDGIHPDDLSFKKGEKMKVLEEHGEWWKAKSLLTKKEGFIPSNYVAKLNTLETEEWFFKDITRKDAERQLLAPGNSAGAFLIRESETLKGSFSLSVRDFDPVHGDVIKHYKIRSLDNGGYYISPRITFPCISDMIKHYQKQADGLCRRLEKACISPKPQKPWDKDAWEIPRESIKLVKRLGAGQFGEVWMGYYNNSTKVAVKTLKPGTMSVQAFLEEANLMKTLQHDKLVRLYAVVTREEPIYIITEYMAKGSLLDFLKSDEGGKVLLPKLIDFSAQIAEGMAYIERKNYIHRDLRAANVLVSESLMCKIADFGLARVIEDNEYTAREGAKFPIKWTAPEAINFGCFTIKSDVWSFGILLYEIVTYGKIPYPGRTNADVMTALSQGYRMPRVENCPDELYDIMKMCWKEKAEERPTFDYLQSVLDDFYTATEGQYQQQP
T24 sequence (P48730 whole entry): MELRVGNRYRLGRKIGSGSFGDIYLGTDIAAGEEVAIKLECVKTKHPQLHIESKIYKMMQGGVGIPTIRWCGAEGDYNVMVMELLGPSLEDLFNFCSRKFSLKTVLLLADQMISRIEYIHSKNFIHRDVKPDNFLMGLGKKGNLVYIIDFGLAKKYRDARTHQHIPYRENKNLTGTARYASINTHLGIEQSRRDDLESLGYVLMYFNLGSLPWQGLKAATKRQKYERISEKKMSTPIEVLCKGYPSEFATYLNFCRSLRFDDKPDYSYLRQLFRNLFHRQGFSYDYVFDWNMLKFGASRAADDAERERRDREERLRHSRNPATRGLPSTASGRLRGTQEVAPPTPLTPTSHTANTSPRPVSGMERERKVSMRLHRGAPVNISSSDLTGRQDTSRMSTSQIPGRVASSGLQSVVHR
T25 sequence (P36896 24-505): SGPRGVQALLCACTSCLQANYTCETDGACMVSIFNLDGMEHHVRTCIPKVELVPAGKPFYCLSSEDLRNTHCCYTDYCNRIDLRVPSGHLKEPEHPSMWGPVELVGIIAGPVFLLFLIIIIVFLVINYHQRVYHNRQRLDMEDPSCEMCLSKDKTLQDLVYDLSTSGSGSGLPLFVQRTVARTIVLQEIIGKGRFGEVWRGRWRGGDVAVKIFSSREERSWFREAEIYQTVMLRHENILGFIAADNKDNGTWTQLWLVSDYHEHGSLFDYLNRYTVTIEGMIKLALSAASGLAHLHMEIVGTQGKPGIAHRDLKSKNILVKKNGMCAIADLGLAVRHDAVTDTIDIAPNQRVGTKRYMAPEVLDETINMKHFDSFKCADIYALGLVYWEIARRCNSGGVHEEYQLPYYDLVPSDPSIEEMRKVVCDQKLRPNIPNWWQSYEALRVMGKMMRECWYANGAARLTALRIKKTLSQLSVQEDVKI
T33 sequence (P07949 29-1114): as the sequence (P07949 29-1114 Y791F) above, with F763Y counted along it
T13 sequence (P07949 29-1114 A883F): as the sequence (P07949 29-1114 Y791F) above, with F763Y, A855F counted along it

SMILES: NS(=O)(=O)c1ccc(Nc2ncc3cc4n(c3n2)C2(CCCCC2)C(=O)NN4)cc1 [INX-315]
- inhibition at 0.1 µM [1]: 1%
- inhibition at 0.1 µM [2]: 6%
- inhibition at 0.1 µM [3]: 84%
- inhibition at 0.1 µM [4]: 24%
- inhibition at 0.1 µM [5]: 9%
- inhibition at 0.1 µM [6]: 10%
- inhibition at 0.1 µM [7]: 50%
- inhibition at 0.1 µM [8]: 3%
- inhibition at 0.1 µM [9]: 17%
- inhibition at 0.1 µM [10]: -1%
- inhibition at 0.1 µM [11]: 5%
- inhibition at 0.1 µM [12]: 55%
- inhibition at 0.1 µM [13]: 22%
- inhibition at 0.1 µM [14]: 6%
- inhibition at 0.1 µM [15]: 22%
- inhibition at 0.1 µM [16]: 16%
- inhibition at 0.1 µM [17]: 6%
- inhibition at 0.1 µM [18]: 6%
- inhibition at 0.1 µM [19]: 1%
- inhibition at 0.1 µM [20]: 9%
- inhibition at 0.1 µM [21]: 30%
- inhibition at 0.1 µM [22]: 47%
- inhibition at 0.1 µM [23]: 20%
- inhibition at 0.1 µM [24]: 0%
- inhibition at 0.1 µM [25]: -2%
- inhibition at 0.1 µM [26]: 11%
- inhibition at 0.1 µM [27]: 0%
- inhibition at 0.1 µM [28]: 4%
- inhibition at 0.1 µM [29]: 10%
- inhibition at 0.1 µM [30]: -2%
- inhibition at 0.1 µM [31]: 1%
- inhibition at 0.1 µM [32]: 8%
- inhibition at 0.1 µM [33]: 58%
- inhibition at 0.1 µM [34]: 4%
- inhibition at 0.1 µM [35]: 4%
- inhibition at 0.1 µM [36]: 13%
